{"source": "paper PMC12508156", "about": "“Non-canonical dihydrolipoyl transacetylase promotes chemotherapy resistance via mitochondrial tetrahydrofolate signaling” (Nature Communications, 2025)", "key": {"MT-CO2": {"system": "MT-CO2", "experiment": "MT-CO1, MT-CO2, COXIV expression (immunoblot, quantitative RT-PCR)", "type": "cell-based, human", "method": "Apoptosis (top) and cell viability (bottom) were determined. 10-formyl-THF rescues cisplatin-resistant cell growth (c) and MT-CO2 expression (d) in cells lacking K44 MTHFD2 acetylation. Cisplatin-treated cells expressing K44R MTHFD2 were subjected to 10 μM 10-formyl-THF for 24 h followed by annexin V staining, cell viability assay, and assessment of MT-CO1, MT-CO2, and COXIV levels by immunoblotting and quantitative RT-PCR. Cells expressing the acetyl-mimetic mutant form of MTHFD2 K44Q were included for comparison. Effect of MT-CO2 overexpression on cisplatin-resistant cell growth in cells lacking K44 MTHFD2 acetylation (e) or DLAT (f) by K44R MTHFD2 expression or DLAT knockdown, respectively. Data are mean ± SD from 4 independent biological replicates for (d) and 3 for (a–c, e, f). P values were determined by one-way ANOVA. Source data are provided as a Source Data file.\nSupplementary Fig. 8: POLRMT is required for 10-formyl-THF-induced MT-CO2 expression in cisplatin-resistant cells. […]\nabsence of 10-formyl-THF (10 µM) for 24 h. The levels of MT-CO2, mitochondrial transcription factors, and myc-MTHFD2 were assessed by immunoblotting. […] MT-CO2 mRNA and protein levels were assessed by quantitative RT-PCR and immunoblotting, respectively. […] P values were determined by one-way ANOVA. […]"}, "[1]": {"system": "cisplatin-resistant cancer cells", "experiment": "Drug sensitivity of cancer cells (apoptosis, cell viability)", "type": "cell-based, human", "settings": "for sensitization of cancer cells to cisplatin treatment: 10 μM inhibitor and sublethal doses of cisplatin, 48 h (Fig. 4e, f); for sensitization of cancer cells to the agent by impairment of DLAT: KB-3-1cisR and A549cisR, DLAT knockdown vs control, sublethal doses 48 h: 50 μM carboplatin, 10 nM gemcitabine, 10 μM etoposide, 0.5 μM pemetrexed, 3 nM paclitaxel, 1 μM erlotinib", "method": "Cell viability was determined using the CellTiter-Glo Luminescent Cell Viability Assay. […] Subsequently, the cells were cultured in complete medium for an additional 10 days, and the resulting colonies were visualized by staining with crystal violet and quantified using ImageJ software. For cell cycle analysis, cells fixed with 70% ethanol were stained with RNase A (100 µg/mL) and propidium iodide (50 μg/ml) for 30 min at 37 °C, and DNA content distribution was measured using flow cytometry (BD Symphony A3) and analyzed with FlowJo software (v10.9). Apoptotic cell death was assessed via FITC-conjugated annexin V and propidium iodide staining."}, "A549cisR cells": {"system": "A549cisR cells", "experiment": "Apoptotic cell death (annexin V/PI staining)", "type": "cell-based, human", "settings": "A549cisR; 5 mM DCA and/or sublethal cisplatin, 48 h; n=1-3: biological replicates"}, "KB-3-1cisR cells": {"system": "KB-3-1cisR cells", "experiment": "Apoptotic cell death (annexin V/PI staining)", "type": "cell-based, human", "settings": "KB-3-1cisR; 5 mM DCA and/or sublethal cisplatin, 48 h; n=1-3: biological replicates"}, "MTHFD1": {"system": "MTHFD1", "settings": "concurrently inhibiting the ubiquitous isozyme MTHFD1; cited from earlier work", "source_text": "Inhibitors targeting components of PDC include a non-selective PDK inhibitor, dichloroacetate (DCA)[39]. However, to the best of our knowledge, no specific inhibitor is available to target non-classical DLAT signaling that is independent of PDC. LY345899 and DS18561882 have been reported to be MTHFD2 inhibitors, and are a folate analog and a tricyclic coumarin-based compound that competitively binds to the substrate binding site[40]–[42]. However, these inhibitors are unselective, concurrently inhibiting the ubiquitous isozyme MTHFD1 and thus posing a potential safety risk; therefore, further ..."}, "Bcl-xL": {"system": "Bcl-xL", "experiment": "Immunoblotting of apoptosis-associated proteins", "type": "cell-based, human", "settings": "NAC in cisplatin-treated DLAT knockdown cells (Fig. 3h)", "method": "Cellular ROS (upper), apoptosis (middle), and cell viability (lower) were measured. […] Mito-TEMPO (10 μM) or flag-tagged catalase was introduced in cisplatin-treated cells. Mitochondrial ROS and cytoplasmic hydrogen peroxide were measured by mitoSOX staining and luminescence detection, respectively. g Immunoblotting of apoptosis-associated proteins. […] Fold changes were obtained by comparing the DLAT knockdown group to the control group. […] P values were determined by two-tailed Student’s t-test (a, i) and one-way ANOVA for the rest. Source data are provided as a Source Data file."}, "[2]": {"system": "A549cisR and KB-3-1cisR cells", "experiment": "Senescence (p21) and autophagy (LC3-I/II, p62) markers, cell cycle", "type": "cell-based, human", "settings": "0.5 mM NAC, 24 h, DLAT shRNA and sublethal cisplatin", "method": "1cisR cells were transduced with DLAT-targeting shRNA and treated with sublethal doses of […]\nantioxidant N-acetylcysteine (NAC). (a) Western blot analysis of p21 waf1/cip1 expression as a marker of cellular senescence. (b) Western blot analysis of LC3-I/II and p62 as markers of autophagy. (c) Cell cycle distribution was assessed by flow cytometry following propidium iodide staining. (d) Intracellular ROS levels were measured using the H2DCFDA probe. Error bars represent SD and are from 3 independent biological replicates for (c,d). P values were determined by one-way ANOVA.\n(1 picture or pasted object on this page, not shown here)"}, "DLAT": {"system": "DLAT", "experiment": "DLAT mRNA, DLAT protein and cell viability after elesclomol", "type": "cell-based, human", "settings": "increasing doses up to 1 µM for 48 h", "method": "Elesclomol was administered at increasing doses up to 1 µM for 48 h. The levels of DLAT mRNA (a), DLAT protein (b), and cell viability (c) are shown. Error bars represent the standard deviation (SD) and from 3 independent biological replicates for (a,c). P values were obtained by one-way ANOVA. 1 (1 picture or pasted object on this page, not shown here)"}}, "note": "“And” between values parts separate entries of the source, which are not always exact repeats. Equal values may be shown once."}
{"smiles": "Nc1nc2c(c(=O)[nH]1)NC(CN(C=O)c1ccc(C(=O)N[C@@H](CCC(=O)O)C(=O)O)cc1)CN2", "note": "(stereo partly drawn) [10-formyl-THF, 10-Formyltetrahydrofolate]", "values": [{"measurement": "MT-CO2 expression in MTHFD2 K44R cells", "setting": "MT-CO2; 10 μM 10-formyl-THF, 24 h, cisplatin-treated cells (Fig. 6d)", "value": "restored"}, {"measurement": "attenuated cell viability and elevated apoptosis induced by cisplatin and DLAT loss", "setting": "[1]; supplementation at physiological concentrations, 48 h, DLAT knockdown cells under sublethal cisplatin (Fig. 6a, b)", "value": "reversed"}]}
{"smiles": "O=C(O)C(Cl)Cl", "note": "[DCA, dichloroacetate]", "values": [{"measurement": "Apoptotic death", "setting": "A549cisR cells", "value": "9.2 and 6.2"}, {"measurement": "Apoptotic death", "setting": "KB-3-1cisR cells", "value": "2.5 and 4.8 and 4.4"}, {"measurement": "survival of cisplatin-resistant cancer cells", "setting": "[1]; 5 mM DCA and cisplatin, 48 h, A549cisR and KB-3-1cisR (Fig. 2e)", "value": "no significant effect"}]}
{"smiles": "Cc1c(N2CCN(C)[C@@H](C)C2)ccc2c3c(c(=O)oc12)CN(C(=O)c1ccc(NS(C)(=O)=O)c(OC(F)(F)F)c1)CC3", "note": "[DS18561882]", "values": [{"measurement": "sensitization of cancer cells to cisplatin treatment", "setting": "[1]", "value": "sensitized"}, {"measurement": "selectivity versus isozyme MTHFD1", "setting": "MTHFD1", "value": "unselective"}]}
{"smiles": "Cc1ccccc1-c1cc(=O)oc2cc(OC(C)C(=O)N(C)C)ccc12", "note": "(stereo not drawn) [IMT1]", "values": [{"measurement": "MT-CO2 expression induced by 10-formyl-THF", "setting": "MT-CO2; IMT1 5 µM and 10-formyl-THF 10 µM, 24 h (Supplementary Fig. 8b)", "value": "mitigated"}]}
{"smiles": "Nc1nc2c(c(=O)[nH]1)N1C(=O)N(c3ccc(C(=O)N[C@@H](CCC(=O)O)C(=O)O)cc3)CC1CN2", "note": "(stereo partly drawn) [LY345899]", "values": [{"measurement": "sensitization of cancer cells to cisplatin treatment", "setting": "[1]", "value": "sensitized"}, {"measurement": "selectivity versus isozyme MTHFD1", "setting": "MTHFD1", "value": "unselective"}]}
{"smiles": "CC(=O)N[C@@H](CS)C(=O)O", "note": "[NAC, N-acetyl-L-cysteine]", "values": [{"measurement": "Bcl-xL expression", "setting": "Bcl-xL", "value": "partially restored"}, {"measurement": "senescence, autophagy, or cell cycle progression", "setting": "[2]", "value": "did not alter"}, {"measurement": "cisplatin-mediated ROS and apoptosis in DLAT knockdown cells", "setting": "[1]; NAC 0.5 mM, cisplatin-treated DLAT knockdown cells (Fig. 3d)", "value": "significantly lowered"}]}
{"smiles": "N.N.O=C([O-])C1(C(=O)[O-])CCC1.[Pt+2]", "note": "[carboplatin]", "values": [{"measurement": "sensitization of cancer cells to the agent by impairment of DLAT", "setting": "[1]", "value": "sensitized"}]}
{"smiles": "CN(NC(=O)CC(=O)NN(C)C(=S)c1ccccc1)C(=S)c1ccccc1", "note": "[elesclomol]", "values": [{"measurement": "DLAT levels (gene and protein)", "setting": "DLAT", "value": "did not alter"}]}
{"smiles": "C#Cc1cccc(Nc2ncnc3cc(OCCOC)c(OCCOC)cc23)c1", "note": "[erlotinib]", "values": [{"measurement": "sensitization of cancer cells to the agent by impairment of DLAT", "setting": "[1]", "value": "not"}]}
{"smiles": "COc1cc([C@@H]2c3cc4c(cc3[C@@H](O[C@@H]3O[C@@H]5CO[C@@H](C)O[C@H]5[C@H](O)[C@H]3O)[C@H]3COC(=O)[C@H]23)OCO4)cc(OC)c1O", "note": "[etoposide]", "values": [{"measurement": "sensitization of cancer cells to the agent by impairment of DLAT", "setting": "[1]", "value": "sensitized"}]}
{"smiles": "Nc1ccn([C@@H]2O[C@H](CO)[C@@H](O)C2(F)F)c(=O)n1", "note": "[gemcitabine]", "values": [{"measurement": "sensitization of cancer cells to the agent by impairment of DLAT", "setting": "[1]", "value": "sensitized"}]}
{"smiles": "CC1(C)CC(NC(=O)C[P+](c2ccccc2)(c2ccccc2)c2ccccc2)CC(C)(C)N1[O]", "note": "[mito-TEMPO]", "values": [{"measurement": "elevated apoptosis and attenuated cell viability induced by DLAT loss and cisplatin", "setting": "[1]; Mito-TEMPO 10 μM (Fig. 3e)", "value": "reversed"}]}
{"smiles": "CC(=O)O[C@H]1C(=O)[C@@]2(C)[C@H]([C@H](OC(=O)c3ccccc3)[C@]3(O)C[C@H](OC(=O)[C@H](O)[C@@H](NC(=O)c4ccccc4)c4ccccc4)C(C)=C1C3(C)C)[C@]1(OC(C)=O)CO[C@@H]1C[C@@H]2O", "note": "[paclitaxel]", "values": [{"measurement": "sensitization of cancer cells to the agent by impairment of DLAT", "setting": "[1]", "value": "sensitized"}]}
{"smiles": "Nc1nc2[nH]cc(CCc3ccc(C(=O)N[C@@H](CCC(=O)O)C(=O)O)cc3)c2c(=O)[nH]1", "note": "[pemetrexed]", "values": [{"measurement": "sensitization of cancer cells to the agent by impairment of DLAT", "setting": "[1]", "value": "sensitized"}]}
